Results taken from PubChem BioAssay AID1259407 (Chemical Carcinogenesis Research Information System (CCRIS), 2018).
Activity calls are given as the source filed them. How the calls were made is not given here.

Test system: CCRIS mutagenicity, Ames/micronucleus/aberration tests
Test: CCRIS mutagenicity studies
[1] = Test System: AMES SALMONELLA TYPHIMURIUM, Strain/Indicator: TA100, Metabolic Activation: NONE, Method: STANDARD PLATE
[2] = Test System: AMES SALMONELLA TYPHIMURIUM, Strain/Indicator: TA98, Metabolic Activation: NONE, Method: STANDARD PLATE

For `C=COC(=O)C=C`, the mutagenic call (Test System: AMES SALMONELLA TYPHIMURIUM, Strain/Indicator: TA102, Metabolic Activation: RAT, LIVER, S-9, PHENOBARBITAL AND 5,6-BENZOFLAVONE, Method: STANDARD PLATE) was “inactive; negative”, the mutagenic call (Test System: AMES SALMONELLA TYPHIMURIUM, Strain/Indicator: TA2638, Metabolic Activation: RAT, LIVER, S-9, PHENOBARBITAL AND 5,6-BENZOFLAVONE, Method: STANDARD PLATE) was “inactive; negative” and the mutagenic call (Test System: E. COLI, Strain/Indicator: WP2 (PKM101), Metabolic Activation: RAT, LIVER, S-9, PHENOBARBITAL AND 5,6-BENZOFLAVONE, Method: STANDARD PLATE) was “inactive; negative”. The mutagenic call (Test System: E. COLI, Strain/Indicator: WP2 UVRA (PKM101), Metabolic Activation: RAT, LIVER, S-9, PHENOBARBITAL AND 5,6-BENZOFLAVONE, Method: STANDARD PLATE) was “inactive; negative”.

In the case of `CCCCOS(=O)(=O)c1ccccc1`, the mutagenic call (End Point: IN VITRO MICRONUCLEUS, Test System: MOUSE LYMPHOMA L5178Y CELLS, Metabolic Activation: NONE) was “inactive; negative”, the mutagenic call (End Point: IN VITRO MICRONUCLEUS, Test System: MOUSE LYMPHOMA L5178Y CELLS, Metabolic Activation: RAT, LIVER, S-9) was “inactive; negative” and the mutagenic call (End Point: In vitro micronucleus, Test System: Chinese Hamster Ovary (CHO-WBL) cells, Metabolic Activation: None) was “active; positive (p<0.01)”. For the same molecule, the mutagenic call [1] was “active; positive” and the mutagenic call (Test System: AMES SALMONELLA TYPHIMURIUM, Strain/Indicator: TA100, Metabolic Activation: RAT, LIVER, S-9, Method: STANDARD PLATE) was “active; positive”.

For `N#Cc1cccc(/C=C\c2ccc([N+](=O)[O-])cc2)c1`, the mutagenic call (Test System: AMES SALMONELLA TYPHIMURIUM, Strain/Indicator: TA98(NR), Metabolic Activation: NONE, Method: STANDARD PLATE) was “active; positive”, the mutagenic call (Test System: AMES SALMONELLA TYPHIMURIUM, Strain/Indicator: TA98 (NR), Metabolic Activation: S-9, Method: STANDARD PLATE) was “active; positive” and the mutagenic call [2] was “active; positive”. For the same molecule, the mutagenic call (Test System: AMES SALMONELLA TYPHIMURIUM, Strain/Indicator: TA98, Metabolic Activation: S-9, Method: STANDARD PLATE) was “active; positive”, the mutagenic call (Test System: AMES SALMONELLA TYPHIMURIUM, Strain/Indicator: TA100 (NR), Metabolic Activation: NONE, Method: STANDARD PLATE) was “inactive; negative” and the mutagenic call (Test System: AMES SALMONELLA TYPHIMURIUM, Strain/Indicator: TA100 (NR), Metabolic Activation: S-9, Method: STANDARD PLATE) was “inactive; negative”. For the same molecule, the mutagenic call [1] was “active; positive” and the mutagenic call (Test System: AMES SALMONELLA TYPHIMURIUM, Strain/Indicator: TA100, Metabolic Activation: S-9, Method: STANDARD PLATE) was “active; positive”.

For `Clc1cccc(Cl)n1`, the mutagenic call (Test System: AMES SALMONELLA TYPHIMURIUM, Strain/Indicator: TA97, Metabolic Activation: NONE, Method: STANDARD PLATE) was “inactive; negative”, the mutagenic call [2] was “inactive; negative” and the mutagenic call (Test System: AMES SALMONELLA TYPHIMURIUM, Strain/Indicator: TA98, Metabolic Activation: RAT, LIVER, S-9, AROCLOR 1254, Method: STANDARD PLATE) was “inactive; negative”. For the same molecule, the mutagenic call [1] was “inactive; negative”, the mutagenic call (Test System: AMES SALMONELLA TYPHIMURIUM, Strain/Indicator: TA100, Metabolic Activation: RAT, LIVER, S-9, AROCLOR 1254, Method: STANDARD PLATE) was “inactive; negative” and the mutagenic call (Test System: AMES SALMONELLA TYPHIMURIUM, Strain/Indicator: TA102, Metabolic Activation: NONE, Method: STANDARD PLATE) was “inactive; negative”. The mutagenic call (Test System: AMES SALMONELLA TYPHIMURIUM, Strain/Indicator: TA102, Metabolic Activation: RAT, LIVER, S-9, AROCLOR 1254, Method: STANDARD PLATE) was “inactive; negative”.
